# Experimental data reported in patent publication US20210244686A1, “Novel Systems And Methods For The Therapeutic Use of Cannabinoids or Cannabinoid Analogs to Increase The Lipid Order of Cholesterol Containing Cell Membranes” (The Regents of the University of Colorado a body corporate, priority 2018, published 2021).
# pEC50: −log10 of the molar value.
# Experiments:
# [1] = test system: SK-N-BE(2) and HaCaT keratinocyte cell lines; experiment: FRET biosensor profiling of CBD response; format: cell-based, human; conditions: CBD dose and time survey
# Method: (§1) To efficiently design the multi-omics experiments, the present inventors exposed the neuroblastoma cell line SK-N-BE(2) to escalating doses of CBD at 24, 48, and 72 hours and determined the EC50 of toxicity of CBD to be greatest at 72 hours and at an approximate concentration of 20 μM (FIG. 1 B). To maximize the efficient use of the inventor's multi-omic resources, a large dose and time survey of the CBD response was conducted in a panel of transgenic SK-N-BE(2) and HaCaT keratinocyte cell lines, each expressing a genetically encoded förster resonance energy transfer (FRET) biosensor gene capable of reporting the activity of a cellular effector molecule/activity including, but not limited to: AMP kinase activity, Erk kinase activity, cytosolic ATP, glucose, lactate, pyruvate & glutamine, Ca^2+ in the ER & Cytosol, mTor kinase activity & TACE protease activity. […] The biosensor activity profiles as a function of CBD dose and time (FIGS. 9A-C) were analyzed for the EC50 of each biosensor activity at each time (FIG. 10). The result of these efforts outlined that the most robust dose of CBD for use in multi-omic experiments is 20 μM and that the kinetic profile of the CBD response begins in hours and persists for days.
# Stable transgenic biosensor expressing cell lines were made in HaCaT and SK-N-BE(2) cells. […]
# [2] = test system: SKNBE2 neuroblastoma cells; experiment: Toxicity profiling, percent death with and without cholesterol challenge; format: cell-based, human; conditions: 24 hrs of exposure; high doses
# Description: FIG. 15. Toxicity profiling.
# SK-N-BE(2) cells [3] = experiment: Live cell microscopy apoptosis assay (caspase 3/7 dye)
# Method: (§2) To accurately measure cellular apoptosis over time, the present inventors performed live cell microscopy experiments with cells loaded with both DNA and caspase 3/7 dyes, which enables continuous and precise quantification of apoptosis at the single cell level.
# (§3) Cell viability for SK-N-BE(2) cells was conducted using a fluorometric cell viability assay using Resazurin (PromoKine) according to the manufacturer's instructions. […] Dyes were added at the time of seeding, 18-24 hours prior to performing experiments.
# (§4) Experiments were performed using an ImageXpress MicroXL microscope and a 10× objective, where images were acquired for each well at the indicated time-points using DAPI and FITC filter sets. […] Percent apoptotic cells was calculated from the sum of apoptotic cell pixels divided by the sum of all cell pixels for each field of view.
# HaCaT cells = experiment: as above; conditions: increasing 25-hydroxy cholesterol, constant CBD
# Method: as §2, §3, §4
# SK-N-BE(2) cells [4] = experiment: cells; format: cell-based, human
# Method: as §1
# [5] = FRAP of NBD-cholesterol in synthetic membrane monolayers; conditions: PC SUV derived monolayers, 20% cholesterol, 2% NBD-cholesterol
# Description: CBD's ability to affect cholesterol orientation in both synthetic and cell derived ER membranes implies that CBD may contribute to increased lipid order. The ability of cholesterol oxidase assays to reveal alterations in lipid order has been previously reported in studies noting that cholesterol oxidase can preferentially target caveolar domains, which are ordered lipid domains. Another hallmark of lipid order is a decrease in lateral diffusion of lipids. As a result, the present inventors aimed to measure CBD's ability to perturb the lateral diffusion of fluorescently labelled cholesterol (NBD-cholesterol) in synthetic membranes. The present inventors deposited PC SUVs containing 20% moles of cholesterol and 2% moles NBD-cholesterol on glass-bottom multi-well imaging plates, followed by ultra-sonification to construct fluorescently labelled membrane monolayers. Using these monolayers and confocal microscopy, the inventor's performed fluorescence recovery after photobleaching (FRAP) experiments to measure the kinetics of recovery of fluorescent cholesterol. […] This effect of CBD on lateral diffusion could be rescued with simultaneous treatment with the lipid disordering agent DHA (FIGS. 6G, I). There are two proposed models for how DHA affects cholesterol in membranes. […]
structure (smiles),measurement,setting,value
"C=C(C)[C@@H]1CCC(C)=C[C@H]1c1c(O)cc(CCCCC)cc1O [CBD, cannabidiol]",biosensor activities across panel,[1],causes modulation of all biochemical pathways that were probed
same,toxicity in cells challenged with a high cholesterol environment,[2],toxic
same,effect on DHA induced apoptosis,SK-N-BE(2) cells [3]; DHA 75 μM with MBCD 300 μM or CBD 6.25 μM,completely cancel the apoptotic effects
same,sensitivity of CBD exposed cells to 25-hydroxy cholesterol induced apoptosis,"SK-N-BE(2) cells [3]; increasing 25-hydroxy cholesterol, constant CBD",clear dose dependent sensitivity
same,"sensitivity of CBD exposed cells to 25-hydroxy cholesterol induced apoptosis, relative to SK-N-BE(2)",HaCaT cells,more dramatically observed
same,pEC50,"SK-N-BE(2) cells [4]; Homo sapiens, SKNBE2, SK-N-BE(2), greatest at 72 hours, approximate, read-out: EC50 of toxicity",~4.70
same,doses that can induce cell death,SK-N-BE(2) cells [4]; after 24 hours,> 40 µM
same,FRAP kinetics (lateral diffusion of fluorescent cholesterol),[5],significantly reduced
